Results from patent publication US10376520B2, “Methods for the treatment of cardiovascular disorders” (Galapagos NV, priority 2015, dated 2019).

System: RA patients
Assay: LDL determination, Study 2 (RA patients, monotherapy)
Type: in vivo, human
Details: for [LDL] Mean CFB / [LDL] Median CFB: Study 2 12 weeks results
From the text: Randomized, double-blind, placebo-controlled, multicenter, phase IIb dose finding study of Compound 1 (dosed as a [Compound 1:HCl:3H2O]) administered for 24 weeks as monotherapy to subjects with moderately to severely active rheumatoid arthritis who have an inadequate response to methotrexate alone
Double-blind, placebo-controlled, monotherapy study in subjects with moderately to severely active RA who have an inadequate response to methotrexate (MTX) (oral or parenteral).
280 subjects randomized to one of 3 doses of Compound 1 (dosed as a [Compound 1:HCl:3H2O]) or to placebo, given once daily (q.d.).
Twelve weeks of treatment with Compound 1 (dosed as a [Compound 1:HCl:3H2O]) at 50 mg, 100 mg, or 200 mg q.d.; or placebo. At Week 12, all subjects on placebo and the subjects on the 50 mg dose who have not achieved 20% improvement in swollen joint count (SJC66) and tender joint count (TJC68) will be assigned to 100 mg q.d. in a blinded fashion and will continue treatment until Week 24. Subjects in the other groups will maintain their randomized treatment until Week 24.
The determination of [LDL]-cholesterol is made using an automated method taking advantage of the selective micellary solubilization of [LDL]-cholesterol by a nonionic detergent and the interaction of a sugar compound and lipoproteins (VLDL and chylomicrons).
When a detergent is included in the enzymatic method for cholesterol determination (cholesterol esterase, cholesterol oxidase coupling reaction), the relative reactivities of cholesterol in the lipoprotein fractions increase in this order: [HDL]<chylomicrons <VLDL <[LDL]. In the presence of Mg^2+, a sugar compound markedly reduces the enzymatic reaction of the cholesterol measurement in VLDL and chylomicrons. The combination of a sugar compound with detergent enables the selective determination of [LDL]-cholesterol in serum. (Friedewald et al., 1972; Rifai et al., 1992)
Homogeneous enzymatic colorimetric assay.
In the presence of peroxidase, the hydrogen peroxide generated reacts with 4-aminoantipyrine and Sodium N-(2-hydroxy-3-sulfopropyl)-3,5-dimethoxyaniline (HSDA) to form a purple-blue dye.
The color intensity of this dye is directly proportional to the cholesterol concentration and is measured photometrically.
Human serum and plasma samples [LDL] determination was done on a Roche/Hitachi Cobas c 701/702 system which automatically calculate the analyte concentration of each sample. Samples containing precipitates are centrifuged before performing the assay.

[1] = 50 mg q.d. non responders switching to 100 mg q.d. at week 12, week 1
[2] = 50 mg q.d. non responders switching to 100 mg q.d. at week 12, week 2
[3] = 50 mg q.d. non responders switching to 100 mg q.d. at week 12, week 4
[4] = 50 mg q.d. non responders switching to 100 mg q.d. at week 12, week 8
[5] = 50 mg q.d. non responders switching to 100 mg q.d. at week 12, week 12

O=C(Nc1nc2cccc(-c3ccc(CN4CCS(=O)(=O)CC4)cc3)n2n1)C1CC1 [Compound 1, cyclopropanecarboxylic acid {5-[4-(1,1-dioxo-thiomorpholin-4-ylmethyl)-phenyl]-[1,2,4]triazolo[1,5-a]pyridin-2yl}-amide] was tested, and the “[LDL] Mean percentage CFB - 24 weeks results” value [1] was −0.30%, the “[LDL] Median percentage CFB - 24 weeks results” value [1] was 2.72% and the “[LDL] Mean percentage CFB - 24 weeks results” value [2] was 1.96%. The “[LDL] Median percentage CFB - 24 weeks results” value [2] was −0.66%, the “[LDL] Mean percentage CFB - 24 weeks results” value [3] was 6.21% and the “[LDL] Median percentage CFB - 24 weeks results” value [3] was 1.36%. The “[LDL] Mean percentage CFB - 24 weeks results” value [4] was 4.76%, the “[LDL] Median percentage CFB - 24 weeks results” value [4] was 2.69% and the “[LDL] Mean percentage CFB - 24 weeks results” value [5] was 6.13%. The “[LDL] Median percentage CFB - 24 weeks results” value [5] was 3.06%, the “[LDL] Median percentage CFB - 24 weeks results” value (50 mg q.d. non responders switching to 100 mg q.d. at week 12, week 16) was 7.11% and the “[LDL] Median percentage CFB - 24 weeks results” value (50 mg q.d. non responders switching to 100 mg q.d. at week 12, week 20) was −0.80%. For the same compound, the “[LDL] Median percentage CFB - 24 weeks results” value (50 mg q.d. non responders switching to 100 mg q.d. at week 12, week 24) was 5.60%, the “[LDL] Mean percentage CFB - 24 weeks results” value (50 mg q.d. responders, week 1) was −0.43% and the “[LDL] Median percentage CFB - 24 weeks results” value (50 mg q.d. responders, week 1) was −0.29%. For the same compound, the “[LDL] Mean percentage CFB - 24 weeks results” value (50 mg q.d. responders, week 2) was −2.56%, the “[LDL] Median percentage CFB - 24 weeks results” value (50 mg q.d. responders, week 2) was −2.27% and the “[LDL] Mean percentage CFB - 24 weeks results” value (50 mg q.d. responders, week 4) was 2.09%. For the same compound, the “[LDL] Median percentage CFB - 24 weeks results” value (50 mg q.d. responders, week 4) was −1.14%, the “[LDL] Mean percentage CFB - 24 weeks results” value (50 mg q.d. responders, week 8) was 6.10% and the “[LDL] Median percentage CFB - 24 weeks results” value (50 mg q.d. responders, week 8) was 5.33%. The “[LDL] Mean percentage CFB - 24 weeks results” value (50 mg q.d. responders, week 12) was 3.64%, the “[LDL] Median percentage CFB - 24 weeks results” value (50 mg q.d. responders, week 12) was 0.69% and the “[LDL] Mean percentage CFB - 24 weeks results” value (50 mg q.d. responders, week 16) was 7.12%. The “[LDL] Median percentage CFB - 24 weeks results” value (50 mg q.d. responders, week 16) was 7.71%, the “[LDL] Mean percentage CFB - 24 weeks results” value (50 mg q.d. responders, week 20) was 1.20% and the “[LDL] Median percentage CFB - 24 weeks results” value (50 mg q.d. responders, week 20) was 3.91%. The “[LDL] Mean percentage CFB - 24 weeks results” value (50 mg q.d. responders, week 24) was 1.97%, the “[LDL] Median percentage CFB - 24 weeks results” value (50 mg q.d. responders, week 24) was −0.19% and the “[LDL] Mean percentage CFB - 12 weeks results” value (50 mg q.d., week 1) was −0.40%. The “[LDL] Median percentage CFB - 12 weeks results” value (50 mg q.d., week 1) was 0.18%, the “[LDL] Mean percentage CFB - 12 weeks results” value (50 mg q.d., week 2) was −1.59% and the “[LDL] Median percentage CFB - 12 weeks results” value (50 mg q.d., week 2) was −1.23%. The “[LDL] Mean percentage CFB - 12 weeks results” value (50 mg q.d., week 4) was 2.97%, the “[LDL] Median percentage CFB - 12 weeks results” value (50 mg q.d., week 4) was 0.76% and the “[LDL] Mean percentage CFB - 12 weeks results” value (50 mg q.d., week 8) was 5.80%. For the same compound, the “[LDL] Median percentage CFB - 12 weeks results” value (50 mg q.d., week 8) was 4.49%, the “[LDL] Mean percentage CFB - 12 weeks results” value (50 mg q.d., week 12) was 4.19% and the “[LDL] Median percentage CFB - 12 weeks results” value (50 mg q.d., week 12) was 1.14%. The “[LDL] Mean percentage CFB - 12 weeks results” value (100 mg q.d., week 1) was 6.36%, the “[LDL] Mean percentage CFB - 24 weeks results” value (100 mg q.d., week 1) was 6.36% and the “[LDL] Median percentage CFB - 12 weeks results” value (100 mg q.d., week 1) was 1.97%. For the same compound, the “[LDL] Median percentage CFB - 24 weeks results” value (100 mg q.d., week 1) was 1.97%, the “[LDL] Mean percentage CFB - 12 weeks results” value (100 mg q.d., week 2) was 6.15% and the “[LDL] Mean percentage CFB - 24 weeks results” value (100 mg q.d., week 2) was 6.15%. For the same compound, the “[LDL] Median percentage CFB - 24 weeks results” value (100 mg q.d., week 2) was −1.82%, the “[LDL] Mean percentage CFB - 12 weeks results” value (100 mg q.d., week 4) was 10.29% and the “[LDL] Mean percentage CFB - 24 weeks results” value (100 mg q.d., week 4) was 10.29%. The “[LDL] Median percentage CFB - 12 weeks results” value (100 mg q.d., week 4) was 5.08%, the “[LDL] Median percentage CFB - 24 weeks results” value (100 mg q.d., week 4) was 5.08% and the “[LDL] Mean percentage CFB - 12 weeks results” value (100 mg q.d., week 8) was 7.39%. The “[LDL] Mean percentage CFB - 24 weeks results” value (100 mg q.d., week 8) was 7.39%, the “[LDL] Median percentage CFB - 12 weeks results” value (100 mg q.d., week 8) was 5.34% and the “[LDL] Median percentage CFB - 24 weeks results” value (100 mg q.d., week 8) was 5.34%. For the same compound, the “[LDL] Mean percentage CFB - 12 weeks results” value (100 mg q.d., week 12) was 14.31%, the “[LDL] Mean percentage CFB - 24 weeks results” value (100 mg q.d., week 12) was 14.31% and the “[LDL] Median percentage CFB - 12 weeks results” value (100 mg q.d., week 12) was 5.78%. For the same compound, the “[LDL] Median percentage CFB - 24 weeks results” value (100 mg q.d., week 12) was 5.78%, the “[LDL] Mean percentage CFB - 24 weeks results” value (100 mg q.d., week 16) was 12.10% and the “[LDL] Median percentage CFB - 24 weeks results” value (100 mg q.d., week 16) was 7.81%. For the same compound, the “[LDL] Mean percentage CFB - 24 weeks results” value (100 mg q.d., week 20) was 12.84%, the “[LDL] Median percentage CFB - 24 weeks results” value (100 mg q.d., week 20) was 7.74% and the “[LDL] Mean percentage CFB - 24 weeks results” value (100 mg q.d., week 24) was 14.01%. The “[LDL] Median percentage CFB - 24 weeks results” value (100 mg q.d., week 24) was 9.61%, the “[LDL] Mean percentage CFB - 12 weeks results” value (200 mg q.d., week 1) was 8.06% and the “[LDL] Mean percentage CFB - 24 weeks results” value (200 mg q.d., week 1) was 8.06%. For the same compound, the “[LDL] Median percentage CFB - 12 weeks results” value (200 mg q.d., week 1) was 6.59%, the “[LDL] Median percentage CFB - 24 weeks results” value (200 mg q.d., week 1) was 6.59% and the “[LDL] Mean percentage CFB - 12 weeks results” value (200 mg q.d., week 2) was 8.39%. The “[LDL] Mean percentage CFB - 24 weeks results” value (200 mg q.d., week 2) was 8.39%, the “[LDL] Median percentage CFB - 12 weeks results” value (200 mg q.d., week 2) was 5.81% and the “[LDL] Median percentage CFB - 24 weeks results” value (200 mg q.d., week 2) was 5.81%. The “[LDL] Mean percentage CFB - 12 weeks results” value (200 mg q.d., week 4) was 9.99%, the “[LDL] Mean percentage CFB - 24 weeks results” value (200 mg q.d., week 4) was 9.99% and the “[LDL] Median percentage CFB - 12 weeks results” value (200 mg q.d., week 4) was 10.14%. The “[LDL] Median percentage CFB - 24 weeks results” value (200 mg q.d., week 4) was 10.14%, the “[LDL] Mean percentage CFB - 12 weeks results” value (200 mg q.d., week 8) was 9.80% and the “[LDL] Mean percentage CFB - 24 weeks results” value (200 mg q.d., week 8) was 9.80%. For the same compound, the “[LDL] Median percentage CFB - 12 weeks results” value (200 mg q.d., week 8) was 8.13%, the “[LDL] Median percentage CFB - 24 weeks results” value (200 mg q.d., week 8) was 8.13% and the “[LDL] Mean percentage CFB - 12 weeks results” value (200 mg q.d., week 12) was 16.80%. The “[LDL] Mean percentage CFB - 24 weeks results” value (200 mg q.d., week 12) was 16.80%, the “[LDL] Median percentage CFB - 12 weeks results” value (200 mg q.d., week 12) was 11.50% and the “[LDL] Median percentage CFB - 24 weeks results” value (200 mg q.d., week 12) was 11.50%. For the same compound, the “[LDL] Mean percentage CFB - 24 weeks results” value (200 mg q.d., week 16) was 12.24%, the “[LDL] Median percentage CFB - 24 weeks results” value (200 mg q.d., week 16) was 9.19% and the “[LDL] Mean percentage CFB - 24 weeks results” value (200 mg q.d., week 20) was 14.33%. The “[LDL] Median percentage CFB - 24 weeks results” value (200 mg q.d., week 20) was 10.33%, the “[LDL] Median percentage CFB - 24 weeks results” value (200 mg q.d., week 24) was 13.81% and the “[LDL] Mean CFB” value (50 mg q.d., week 1) was 0.011 mmol/L. For the same compound, the “[LDL] Median CFB” value (50 mg q.d., week 1) was 0.005 mmol/L, the “[LDL] Mean CFB” value (50 mg q.d., week 2) was -0.057 mmol/L and the “[LDL] Median CFB” value (50 mg q.d., week 2) was -0.040 mmol/L. The “[LDL] Mean CFB” value (50 mg q.d., week 4) was 0.047 mmol/L, the “[LDL] Median CFB” value (50 mg q.d., week 4) was 0.025 mmol/L and the “[LDL] Mean CFB” value (50 mg q.d., week 8) was 0.142 mmol/L. For the same compound, the “[LDL] Median CFB” value (50 mg q.d., week 8) was 0.130 mmol/L.
